Test results: patent US7317002B2, “Site-specific preparation of polyethylene glycol-GRF conjugates” (Applied Research Systems ARS Holding N.V., priority 1997, dated 2008)
No end group written: not given here.

Tests used:
[1] = molecular target: T1, human growth hormone releasing factor receptor (hGRF-R) (Homo sapiens, UniProt Q02643); assay: CHO-hGRFR-LUC in vitro assay (luciferase reporter gene assay); assay type: cell-based; conditions: DMSO and nicotinamide preparations; FIGS. 5-7
T1 construct: expressed in transfected cells; host or cells: CHO-DUKX (clone CHO-hGRFR-LUC 1-11-20)
T1 sequence (Q02643 23-423): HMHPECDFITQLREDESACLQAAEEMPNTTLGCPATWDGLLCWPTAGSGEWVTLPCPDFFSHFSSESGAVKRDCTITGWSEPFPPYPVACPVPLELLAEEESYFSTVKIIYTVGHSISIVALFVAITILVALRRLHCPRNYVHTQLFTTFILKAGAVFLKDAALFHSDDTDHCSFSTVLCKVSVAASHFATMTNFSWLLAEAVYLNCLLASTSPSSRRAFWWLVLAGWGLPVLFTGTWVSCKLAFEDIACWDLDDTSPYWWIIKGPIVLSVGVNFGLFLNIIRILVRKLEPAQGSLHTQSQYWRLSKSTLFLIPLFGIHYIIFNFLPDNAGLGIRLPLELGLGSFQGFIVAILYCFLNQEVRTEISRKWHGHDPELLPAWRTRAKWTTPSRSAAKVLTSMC
From the text: CHO-hGRFR-LUC in Vitro Assay
CHO-hGRFR-LUC (clone 1-11-20) is a cloned cell line that had been obtained by cotransfection of the pcDNA3-hGRF-R and pTF5-53 LUC vectors into CHO-DUKX cell line.
The plasmid pcDNA3-hGRF-R was constructed by inserting the human growth hormone releasing factor receptor (hGRF-R) cDNA into pcDNA3 expression vector. The Bluescript plasmid containing hGRF-R cDNA was kindly provided by Dr. B. Gaylinn (University of Virginia) the pcDNA3 mammalian expression vector was obtained from Invitrogen. The hGRF-R coding sequence was driven by the human cytomegalovirus (CMV) promoter.
The plasmid pTF5-53LUC was constructed by inserting the c-fos cAMP response element along with its endogenous promoter upstream of the luciferase coding sequence in plasmid poLuc. The cAMP response element and the c-fos promoter were obtained from the plasmid pTF5-53 (described in Fish et al, 1989). The promoterless reporter gene vector (poLuc) with multiple cloning sites upstream of the luciferase coding sequence was obtained from Dr. Brasier (University of Texas, Galveston).
These CHO-DUKX cells obtained by the above co-transfection were routinely grown in MEM alpha medium containing ribonucleosides and deoxyribonucleosides and supplemented with 10% fetal calf serum plus 600 μg/ml geneticin G418 sulfate.
The cells were seeded (40,000 cells/well) in white 96-well plates (Dynatech) and incubated for 16-18 hrs in 200 μl growth medium before the assay.
The next day, the medium was removed and replaced with a medium containing different concentrations of hGRF(1-29) in-house reference standard (Bachem) or different hGRF-PEG conjugates before incubating the plates at 37° C., 5% CO2 for two hours. At the end of incubation, CHO-hGRFR-LUC cells were washed twice with 200 μl of PBS (Sigma) and then lysed by adding 50 μl of a cell culture lyses reagent (Promega) to each well. After a further 15-minute incubation at room temperature, the plates were read in a luminometer (Dynatech) after introducing 150 μl of a luciferase assay reagent (Promega).
As an alternative method, CHO-hGRFR-LUC cells, seeded at 50,000 cells/well, at the end of incubation with different hGRF-PEG conjugates, were washed with PBS, as above discussed. To each well 100 μl PBS containing calcium and magnesium ions was added, prior to addition of 100 μl of Luclite (Packard). After 10 minutes incubation at room temperature, plates were read in luminometer (Lumicount-Packard).
Results were expressed as relative light unit (RLU).

GH serum levels = assay: In vivo assay: serum GH levels after i.v. injection in male rats; parameters: species or system Sprague-Dawley rats; conditions: for GH serum levels induced, compared with hGRF1-29: 400 μg i.v., rats, DMSO preparations, FIG. 11A
Procedure: (§1) SPF adult male Sprague-Dawley rats, 200-250 g b.w, supplied by Charles River, are used after an acclimatisation period of at least 7 days.
(§2) The animal was injected i.v. with hGRF(1-29) (400 μg/rat). A few minutes before blood collection, the animal was anaesthetized (ketamine-xylazine). […] The sample was divided into two aliquots: 1 ml was collected as such and serum was obtained after an incubation period of about 3 hours at 37° C. and subsequent centrifugation; the remaining 1 ml was collected into a vial containing 50 μl of a 4 mg/ml heparin solution, immediately stored on ice and plasma was obtained after centrifugation at 4° C.
(§3) Blood samples were collected at different time points from the injection of the test compound using different animals. In each experimental session a total of three rats for each time point was used.
(§4) Plasma and serum samples were immediately frozen and stored at −20° C.
(§5) GH serum levels were measured by a commercial RIA kit; hGRF plasma levels were measured by a commercial RIA kit for hGRF(1-44).

[2] = In vivo assay: plasma hGRF levels after i.v. injection in male rats; parameters: species or system Sprague-Dawley rats
Procedure: as §1, §2, §3, §4, §5

[3] = Solubility in aqueous buffer; assay type: physicochemical; conditions: water solution at neutral or slightly alkaline pH
[4] = cited from earlier work
rat pituitary cell = assay: In vitro rat pituitary cell bioassay (GH release); assay type: cell-based; conditions: two DMSO preparations; FIGS. 8 and 9
Procedure: In vitro rat pituitary cell bioassay for hGRF(1-29)
The animals (SPF male Sprague-Dawley rats 200 g, b.w.) were sacrificed by CO2 inhalation and the pituitaries removed. The tissue was finely minced and put into a bottle with the enzyme solution for tissue digestion. The bottle was placed in an incubator at 37° C. for 1 hour.
The digested tissue was recovered and the cells washed twice, counted and adjusted to a concentration of 5×10^5/ml. The cells were plated out in a 48-well plate (200 μl/well) and the plate placed in an incubator for 72 hrs.
After 72 hrs the cells were incubated with different concentrations of hGRF for 4 hours. At the end of the incubation period the supernatants were collected and stored at −80° C.
The GH content in each sample was assayed by a commercial rat GH radioimmunoassay kit.

| Molecule | biological effect (activity) in the CHO-hGRFR-LUC in vitro assay [1] | GH serum levels induced, compared with hGRF1-29 (GH serum levels) | also measured |
| --- | --- | --- | --- |
| CC[C@H](C)[C@H](NC(=O)[C@H](C)NC(=O)[C@H](CC(=O)O)NC(=O)[C@H](C)NC(=O)[C@@H](N)Cc1ccc(O)cc1)C(=O)N[C@@H](Cc1ccccc1)C(=O)N[C@H](C(=O)N[C@@H](CC(N)=O)C(=O)N[C@@H](CO)C(=O)N[C@@H](Cc1ccc(O)cc1)C(=O)N[C@@H](CCCNC(=N)N)C(=O)N[C@@H](CCCCN)C(=O)N[C@H](C(=O)N[C@@H](CC(C)C)C(=O)NCC(=O)N[C@@H](CCC(N)=O)C(=O)N[C@@H](CC(C)C)C(=O)N[C@@H](CO)C(=O)N[C@@H](C)C(=O)N[C@@H](CCCNC(=N)N)C(=O)N[C@@H](CCCCN)C(=O)N[C@@H](CC(C)C)C(=O)N[C@@H](CC(C)C)C(=O)N[C@@H](CCC(N)=O)C(=O)N[C@@H](CC(=O)O)C(=O)N[C@H](C(=O)N[C@@H](CCSC)C(=O)N[C@@H](CO)C(=O)N[C@@H](CCCNC(=N)N)C(N)=O)[C@@H](C)CC)C(C)C)[C@@H](C)O [hGRF, hGRF(1-29)—NH2, reference compound] | No difference |  | time at which serum GH returned to basal levels (GH serum levels; 400 μg/rat i.v., male rats): 60 min; time of serum GH peak after i.v. injection (GH serum levels; 400 μg/rat i.v., male rats): 10 min; plasma hGRF concentrations up to 60 min ([2]; 400 μg/rat i.v., male rats, FIG. 10): maintained a sustained level; Tmax ([2]; male, Sprague-Dawley, rat, in vivo, iv, 400 ug/animal): 10 min; solubility in neutral/alkaline buffer solution [3]: low solubility |
| GRF: peptide secreted by the hypothalamus which promotes the release of growth hormone; exists as 44-, 40-, or 37-amino acid peptide |  |  | biological half-life [4]: 12 to 30 minutes |
| N^α-(PEG5,000—CH2—CO—Nle—CO)[Lys(MPEG5,000—CH2—CO—Nle—CO)^12,21-hGRF(1-29)—NH2] [GRF-3PEG] |  | lower activity | GH release from rat pituitary cell in vitro (rank of activity) (rat pituitary cell): then GRF-3PEG |
| [Lys(MPEG5,000—CH2—CO—Nle—CO)^12,21-hGRF(1-29)—NH2] [GRF-2PEG] |  | comparable to those obtained with hGRF1-29 |  |
| [Lys(MPEG5,000—CH2—CO—Nle—CO)^12-hGRF(1-29)—NH2] [GRF-1PEG 2nd peak] | more active than the GRF-2PEG and GRF-3PEG | comparable to those obtained with hGRF1-29 |  |
| [Lys(MPEG5,000—CH2—CO—Nle—CO)^21-hGRF(1-29)—NH2] [GRF-1PEG 1st peak] | more active than the GRF-2PEG and GRF-3PEG | comparable to those obtained with hGRF1-29 | GH release from rat pituitary cell in vitro (rank of activity) (rat pituitary cell): the most active compound |
| hGRF(3-29) (DAIFTNSYRKVLGQLSARKLLQDIMSR; ends and bridges not checked; UniProt P01286 34-60, looked up, fragment) [Human GRF3-29, two preparations, supplied by Bachem and by ISL, reference compound] | did not possess a significant in vitro activity |  |  |
